Test results as given in ChEMBL document CHEMBL4342402, “An insight into medicinal chemistry of anticancer quinoxalines” (Bioorg Med Chem, 2019).
Blank lines part the entries; values can stand above or below the compound they belong to.

Experiments:
[1] = Inhibition of PDGFR in mouse NIH/3T3 cells assessed as reduction in tyrosine phosphorylation incubated for 2 hrs by SDS-PAGE based immunoblot assay; format: cell-based; settings: NIH3T3, 2 h
[2] = molecular target: Mast/stem cell growth factor receptor Kit (Homo sapiens, UniProt P10721); experiment: Inhibition of c-KIT in human M-07e cells assessed as reduction in […] incubated for 2 hrs followed by KIT ligand stimulation by immunoblotting analysis; format: cell-based
[3] = molecular target: T1, Receptor-type tyrosine-protein kinase FLT3 (Homo sapiens, UniProt P36888); experiment: Inhibition of human FLT3 expressed in mouse BAF3 cells assessed as reduction in […] incubated for 2 hrs followed by FLT3 ligand stimulation by immunoblot analysis; format: cell-based
T1 sequence (P36888 whole entry): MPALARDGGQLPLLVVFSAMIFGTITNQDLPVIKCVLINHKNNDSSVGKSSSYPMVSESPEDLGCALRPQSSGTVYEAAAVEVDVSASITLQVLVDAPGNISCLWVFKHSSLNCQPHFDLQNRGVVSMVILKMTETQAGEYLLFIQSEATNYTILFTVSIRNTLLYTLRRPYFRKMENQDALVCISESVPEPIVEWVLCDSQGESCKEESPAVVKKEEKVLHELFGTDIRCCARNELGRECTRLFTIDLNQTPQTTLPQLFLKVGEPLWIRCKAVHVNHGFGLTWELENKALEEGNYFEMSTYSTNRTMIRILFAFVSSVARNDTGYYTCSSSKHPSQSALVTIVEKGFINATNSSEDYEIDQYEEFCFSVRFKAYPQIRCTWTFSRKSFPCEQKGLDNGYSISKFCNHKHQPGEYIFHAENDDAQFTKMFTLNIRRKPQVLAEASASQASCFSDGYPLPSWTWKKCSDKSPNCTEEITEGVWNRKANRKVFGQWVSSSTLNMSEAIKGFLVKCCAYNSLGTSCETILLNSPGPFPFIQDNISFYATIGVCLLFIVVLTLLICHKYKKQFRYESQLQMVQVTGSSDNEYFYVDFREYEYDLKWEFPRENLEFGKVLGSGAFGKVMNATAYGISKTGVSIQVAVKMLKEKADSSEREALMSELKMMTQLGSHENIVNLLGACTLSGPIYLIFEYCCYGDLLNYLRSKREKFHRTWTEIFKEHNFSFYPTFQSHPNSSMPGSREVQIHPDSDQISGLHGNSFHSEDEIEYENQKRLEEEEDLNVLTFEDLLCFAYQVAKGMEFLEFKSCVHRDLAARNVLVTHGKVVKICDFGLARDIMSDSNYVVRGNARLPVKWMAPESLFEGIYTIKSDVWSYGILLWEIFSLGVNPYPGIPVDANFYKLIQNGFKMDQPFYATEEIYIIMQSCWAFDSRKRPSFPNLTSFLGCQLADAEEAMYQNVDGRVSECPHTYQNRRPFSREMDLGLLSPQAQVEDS

[4] = molecular target: Platelet-derived growth factor receptor beta (Homo sapiens, UniProt P09619); experiment: Inhibition of human PDGFR beta
[5] = molecular target: Epidermal growth factor receptor (Homo sapiens, UniProt P00533); experiment: Inhibition of EGFR in human A431 cells incubated for 2 hrs followed by EGF stimulation and measured after 10 mins by immunoblot assay; format: cell-based
[6] = molecular target: Proto-oncogene tyrosine-protein kinase Src (Mus musculus, UniProt P05480); experiment: Inhibition of SRC in transformed mouse NIH3T3 cells by SDS-PAGE based immunoblot assay; format: cell-based
[7] = molecular target: Insulin-like growth factor 1 receptor (Homo sapiens, UniProt P08069); experiment: Inhibition of IGFR1 (unknown origin) using poly (Glu,Tyr) 4:1 as substrate
[8] = Inhibition of VEGFR (unknown origin); parameters: species or system Homo sapiens
BE = experiment: Antiangiogenic activity in human BE cells after 24 hrs by MTT assay; format: functional, cell-based
U-87 MG = experiment: Antiangiogenic activity in human U87cells after 24 hrs by MTT assay; format: functional, cell-based, U-87MG ATCC
HUVEC = experiment: Antiangiogenic activity in HUVEC after 24 hrs by MTT assay; format: functional, cell-based; settings: Homo sapiens
MCF7 = experiment: Cytotoxicity against human MCF7 cells after 48 hrs by MTT assay; format: functional, cell-based; settings: MCF7, 48 h
K562 [9] = experiment: Cytotoxicity against human K562 cells after 72 hrs in presence of 3% O2 by MTT assay; format: functional, cell-based; settings: K562, 72 h
SMMC-7721 [10] = experiment: Cytotoxicity against human SMMC7721 cells after 72 hrs in presence of 3% O2 by MTT assay; format: functional, cell-based; settings: SMMC-7721, 72 h
ECa-109 cell line [11] = experiment: Cytotoxicity against human ECA109 cells after 72 hrs in presence of 3% O2 by MTT assay; format: functional, cell-based; settings: ECa-109, 72 h
SGC-7901 [12] = experiment: Cytotoxicity against human SGC7901 cells after 72 hrs in presence of 3% O2 by MTT assay; format: functional, cell-based; settings: SGC-7901, 72 h
PC-3 [13] = experiment: Cytotoxicity against human PC3 cells after 72 hrs in presence of 3% O2 by MTT assay; format: functional, cell-based; settings: PC-3, 72 h
K562 [14] = experiment: Cytotoxicity against human K562 cells after 72 hrs in presence of 20% O2 by MTT assay; format: functional, cell-based; settings: K562, 72 h
SMMC-7721 [15] = experiment: Cytotoxicity against human SMMC7721 cells after 72 hrs in presence of 20% O2 by MTT assay; format: functional, cell-based; settings: SMMC-7721, 72 h
ECa-109 cell line [16] = experiment: Cytotoxicity against human ECA109 cells after 72 hrs in presence of 20% O2 by MTT assay; format: functional, cell-based; settings: ECa-109, 72 h
SGC-7901 [17] = experiment: Cytotoxicity against human SGC7901 cells after 72 hrs in presence of 20% O2 by MTT assay; format: functional, cell-based; settings: SGC-7901, 72 h
PC-3 [18] = experiment: Cytotoxicity against human PC3 cells after 72 hrs in presence of 20% O2 by MTT assay; format: functional, cell-based; settings: PC-3, 72 h
[19] = Inhibition of phosphoinositide 3-Kinase (unknown origin); parameters: species or system Homo sapiens
[20] = Half life in rat plasma; format: ADME, cell-free
[21] = Half life in guinea pig plasma; format: ADME, cell-free, Cavia porcellus
[22] = Half life in mouse plasma; format: ADME, cell-free
[23] = molecular target: Cyclin-dependent kinase 5/CDK5 activator 1 (Homo sapiens, UniProt Q00535); experiment: Inhibition of CDK5/p25 (unknown origin) expressed in Escherichia coli using histone as substrate in presence of [gamma32P]ATP after 10 mins by scintillation counting method
[24] = Inhibition of Marthasterias glacialis oocyte CDK1/cyclin B using histone as substrate in presence of [gamma32P]ATP after 10 mins by scintillation counting method
[25] = Acute toxicity in po dosed Wistar rat measured up to 14 days; format: organism-based; settings: in vivo
HCT-15 = experiment: Antiproliferative activity against human HCT15 cells; format: functional, cell-based
SK-OV-3 = experiment: Antiproliferative activity against human SKOV3 cells; format: functional, cell-based

Insulin-like growth factor 1 receptor, sequence (P08069 31-736 limits assumed): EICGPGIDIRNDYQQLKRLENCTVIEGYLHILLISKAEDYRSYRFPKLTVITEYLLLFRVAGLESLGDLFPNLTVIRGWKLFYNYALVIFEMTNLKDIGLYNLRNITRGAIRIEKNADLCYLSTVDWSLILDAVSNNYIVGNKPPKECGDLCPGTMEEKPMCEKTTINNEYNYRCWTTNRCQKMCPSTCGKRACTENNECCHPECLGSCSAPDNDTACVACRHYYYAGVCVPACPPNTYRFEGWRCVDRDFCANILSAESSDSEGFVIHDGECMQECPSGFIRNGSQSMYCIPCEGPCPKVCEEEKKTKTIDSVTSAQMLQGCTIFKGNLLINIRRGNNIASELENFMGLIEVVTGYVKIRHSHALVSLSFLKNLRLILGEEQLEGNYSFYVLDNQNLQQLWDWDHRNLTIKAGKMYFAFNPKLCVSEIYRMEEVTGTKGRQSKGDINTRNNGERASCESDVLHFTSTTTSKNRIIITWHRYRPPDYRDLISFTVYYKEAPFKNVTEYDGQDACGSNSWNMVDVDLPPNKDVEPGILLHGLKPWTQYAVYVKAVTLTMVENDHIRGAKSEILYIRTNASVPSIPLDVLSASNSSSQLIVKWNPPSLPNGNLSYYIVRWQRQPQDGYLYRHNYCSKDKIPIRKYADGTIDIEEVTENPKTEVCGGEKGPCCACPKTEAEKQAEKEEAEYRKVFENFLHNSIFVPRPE
Insulin-like growth factor 1 receptor, sequence (P08069 741-1367 limits assumed): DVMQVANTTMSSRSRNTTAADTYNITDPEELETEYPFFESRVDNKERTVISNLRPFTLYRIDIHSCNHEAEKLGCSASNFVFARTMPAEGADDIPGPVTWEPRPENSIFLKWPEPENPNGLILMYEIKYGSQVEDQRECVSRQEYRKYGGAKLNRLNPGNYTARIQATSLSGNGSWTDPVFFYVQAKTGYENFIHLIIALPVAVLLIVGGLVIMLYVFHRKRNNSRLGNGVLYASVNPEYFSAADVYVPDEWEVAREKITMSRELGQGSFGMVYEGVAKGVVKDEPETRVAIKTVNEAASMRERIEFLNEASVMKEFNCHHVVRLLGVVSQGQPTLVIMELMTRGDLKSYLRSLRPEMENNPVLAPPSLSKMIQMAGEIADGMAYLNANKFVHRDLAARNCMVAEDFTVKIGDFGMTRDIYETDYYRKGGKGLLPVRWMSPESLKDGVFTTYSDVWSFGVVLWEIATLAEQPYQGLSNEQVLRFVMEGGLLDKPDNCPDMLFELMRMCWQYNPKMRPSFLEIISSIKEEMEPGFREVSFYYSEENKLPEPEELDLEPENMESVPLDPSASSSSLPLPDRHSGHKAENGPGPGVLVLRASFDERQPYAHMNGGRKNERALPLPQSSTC
Epidermal growth factor receptor, sequence (P00533 whole entry): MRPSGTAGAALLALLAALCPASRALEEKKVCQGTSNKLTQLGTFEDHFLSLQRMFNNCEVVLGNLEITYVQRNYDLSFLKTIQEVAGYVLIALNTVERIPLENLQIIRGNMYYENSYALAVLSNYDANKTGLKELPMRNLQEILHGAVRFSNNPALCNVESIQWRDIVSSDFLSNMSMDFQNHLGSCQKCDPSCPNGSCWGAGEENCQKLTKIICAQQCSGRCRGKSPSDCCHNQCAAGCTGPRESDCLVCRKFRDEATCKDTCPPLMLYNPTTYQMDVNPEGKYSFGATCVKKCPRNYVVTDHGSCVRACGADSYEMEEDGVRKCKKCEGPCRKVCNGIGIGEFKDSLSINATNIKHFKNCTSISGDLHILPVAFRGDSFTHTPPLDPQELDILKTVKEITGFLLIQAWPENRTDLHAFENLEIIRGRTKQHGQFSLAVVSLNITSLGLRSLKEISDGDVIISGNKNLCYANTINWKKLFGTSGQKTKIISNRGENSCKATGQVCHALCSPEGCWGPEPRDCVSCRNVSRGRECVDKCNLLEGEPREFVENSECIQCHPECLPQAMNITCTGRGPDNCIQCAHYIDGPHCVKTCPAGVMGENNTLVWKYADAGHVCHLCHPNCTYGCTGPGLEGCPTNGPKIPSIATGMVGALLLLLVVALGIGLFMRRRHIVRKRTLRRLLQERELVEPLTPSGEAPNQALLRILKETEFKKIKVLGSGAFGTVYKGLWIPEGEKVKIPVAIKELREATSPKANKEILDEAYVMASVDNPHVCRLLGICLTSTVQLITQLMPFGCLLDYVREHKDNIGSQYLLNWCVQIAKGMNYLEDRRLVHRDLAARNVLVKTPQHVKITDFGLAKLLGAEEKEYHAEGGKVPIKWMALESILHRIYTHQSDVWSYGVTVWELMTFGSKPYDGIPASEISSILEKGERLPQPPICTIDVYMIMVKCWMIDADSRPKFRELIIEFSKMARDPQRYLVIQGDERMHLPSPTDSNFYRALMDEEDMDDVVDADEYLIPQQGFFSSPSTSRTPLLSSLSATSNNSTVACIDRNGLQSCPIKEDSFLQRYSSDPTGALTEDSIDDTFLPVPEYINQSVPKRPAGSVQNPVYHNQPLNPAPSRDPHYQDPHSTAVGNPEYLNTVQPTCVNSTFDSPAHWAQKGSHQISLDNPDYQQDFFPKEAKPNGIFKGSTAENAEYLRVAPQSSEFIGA
Proto-oncogene tyrosine-protein kinase Src, sequence (P05480 2-535 limits assumed): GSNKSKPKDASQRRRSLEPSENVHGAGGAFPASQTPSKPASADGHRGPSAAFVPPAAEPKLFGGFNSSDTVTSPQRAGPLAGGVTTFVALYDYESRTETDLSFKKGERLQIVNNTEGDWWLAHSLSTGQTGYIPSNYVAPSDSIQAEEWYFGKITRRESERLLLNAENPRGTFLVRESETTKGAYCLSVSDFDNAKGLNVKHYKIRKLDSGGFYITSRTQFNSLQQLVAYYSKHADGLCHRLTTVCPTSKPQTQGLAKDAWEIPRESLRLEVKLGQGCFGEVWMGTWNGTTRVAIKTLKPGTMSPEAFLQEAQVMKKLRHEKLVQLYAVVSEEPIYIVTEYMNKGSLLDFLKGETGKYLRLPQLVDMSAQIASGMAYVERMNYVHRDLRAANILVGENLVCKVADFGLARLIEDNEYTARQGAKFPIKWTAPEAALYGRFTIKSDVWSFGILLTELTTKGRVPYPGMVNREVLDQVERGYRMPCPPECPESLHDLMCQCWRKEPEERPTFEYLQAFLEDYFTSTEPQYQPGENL
Mast/stem cell growth factor receptor Kit, sequence (P10721 whole entry): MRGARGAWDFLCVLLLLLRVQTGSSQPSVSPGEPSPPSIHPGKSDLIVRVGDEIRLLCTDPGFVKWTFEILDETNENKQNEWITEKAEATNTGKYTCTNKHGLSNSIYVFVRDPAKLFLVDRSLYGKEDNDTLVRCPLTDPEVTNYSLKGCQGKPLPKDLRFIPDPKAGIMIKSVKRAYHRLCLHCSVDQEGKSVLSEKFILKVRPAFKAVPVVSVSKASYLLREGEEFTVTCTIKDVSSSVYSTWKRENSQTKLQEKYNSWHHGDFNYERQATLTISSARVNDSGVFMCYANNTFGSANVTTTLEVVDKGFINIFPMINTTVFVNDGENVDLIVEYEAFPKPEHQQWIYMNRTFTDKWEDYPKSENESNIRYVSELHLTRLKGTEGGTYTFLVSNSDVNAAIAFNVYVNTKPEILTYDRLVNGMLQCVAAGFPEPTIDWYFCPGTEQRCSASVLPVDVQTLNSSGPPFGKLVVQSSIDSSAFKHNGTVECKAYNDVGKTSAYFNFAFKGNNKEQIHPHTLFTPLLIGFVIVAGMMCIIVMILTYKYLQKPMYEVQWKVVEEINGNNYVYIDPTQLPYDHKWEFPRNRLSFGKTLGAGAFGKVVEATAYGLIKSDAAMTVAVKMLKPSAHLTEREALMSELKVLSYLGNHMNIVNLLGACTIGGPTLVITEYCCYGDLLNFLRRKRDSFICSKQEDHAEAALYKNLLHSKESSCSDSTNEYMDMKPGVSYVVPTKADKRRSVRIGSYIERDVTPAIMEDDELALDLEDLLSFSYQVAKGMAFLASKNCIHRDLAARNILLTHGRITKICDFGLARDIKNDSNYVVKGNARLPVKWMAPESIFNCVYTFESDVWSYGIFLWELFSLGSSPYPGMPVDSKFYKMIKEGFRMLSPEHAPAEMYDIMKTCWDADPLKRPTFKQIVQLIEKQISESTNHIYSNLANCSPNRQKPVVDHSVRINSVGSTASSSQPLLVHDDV
Cyclin-dependent kinase 5/CDK5 activator 1, sequence (Q00535 whole entry): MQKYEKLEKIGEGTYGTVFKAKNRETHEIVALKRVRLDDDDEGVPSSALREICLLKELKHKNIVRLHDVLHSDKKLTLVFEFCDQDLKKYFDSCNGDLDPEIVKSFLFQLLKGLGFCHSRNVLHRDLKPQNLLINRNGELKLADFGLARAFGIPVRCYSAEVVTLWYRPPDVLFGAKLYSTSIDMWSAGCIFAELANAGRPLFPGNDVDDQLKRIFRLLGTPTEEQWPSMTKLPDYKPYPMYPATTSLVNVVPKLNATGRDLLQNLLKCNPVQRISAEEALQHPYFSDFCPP
Cyclin-dependent kinase 5/CDK5 activator 1, sequence (Q15078 whole entry, further chain): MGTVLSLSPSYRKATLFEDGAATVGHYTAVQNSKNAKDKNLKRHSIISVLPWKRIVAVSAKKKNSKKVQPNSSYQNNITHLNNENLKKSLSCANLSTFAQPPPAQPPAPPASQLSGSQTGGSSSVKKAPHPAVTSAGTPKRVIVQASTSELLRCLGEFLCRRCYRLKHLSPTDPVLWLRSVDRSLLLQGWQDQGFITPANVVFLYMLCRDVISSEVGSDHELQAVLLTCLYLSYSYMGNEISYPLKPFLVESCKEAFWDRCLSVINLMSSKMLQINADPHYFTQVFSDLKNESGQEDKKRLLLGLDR

SMILES: C[n+]1c2ccccc2nc2c1c1cc(F)ccc1n2CCCCCC[N+]1(C)CCCCC1
IC50 (MCF7): 1.6 µM

SMILES: CCS(=O)(=O)c1c(-c2ccc(Br)cc2)[n+]([O-])c2cc(C)ccc2[n+]1[O-]
IC50 (K562 [9]): 0.18 µM | IC50 (SMMC-7721 [10]): 3.17 µM | IC50 (ECa-109 cell line [11]): 6.38 µM | IC50 (SGC-7901 [12]): 8.88 µM | IC50 (PC-3 [13]): 4.98 µM | IC50 (K562 [14]): < 10 µM | IC50 (SMMC-7721 [15]): < 10 µM | IC50 (ECa-109 cell line [16]): < 10 µM | IC50 (SGC-7901 [17]): < 10 µM | IC50 (PC-3 [18]): < 10 µM

SMILES: O=C(c1ccccc1)N1CCN(c2nc3ccccc3nc2S(=O)(=O)c2ccccc2)CC1
IC50 [19]: 0.04 µM

SMILES: CC(=O)c1c(C)[n+]([O-])c2ccccc2[n+]1[O-] [MEQUINDOX]
LD50 at 336 h [25]: 550 mg/kg

SMILES: O=S(=O)(c1ccccc1)c1nc2ccccc2nc1N1CCOCC1
IC50 [19]: 0.04 µM

SMILES: C[n+]1c2ccccc2nc2c1c1cc(F)ccc1n2CCCC[N+]1(C)CCCC1
IC50 (MCF7): 1.8 µM

SMILES: CCCCCNCc1ccc2c(c1)C(=O)c1nccnc1C2=O
IC50 (HCT-15): 0.05 µM | IC50 (SK-OV-3): 0.4 µM

SMILES: NC(=O)C1CCN(c2nc3ccccc3nc2S(=O)(=O)c2ccc(Br)cc2)CC1
IC50 [19]: 0.04 µM

SMILES: C[n+]1c2ccccc2nc2c1c1cc(F)ccc1n2CCCC[N+]1(C)CCCCC1
IC50 (MCF7): 1.94 µM

Further lines, with some results ahead:

IC50 [1]: 0.8 µM | IC50 [2]: 1 to 3 µM | IC50 [3]: 1 to 3 µM | IC50 [4]: 0.09 µM | IC50 [5]: > 30 µM | IC50 [6]: > 30 µM | IC50 [7]: > 30 µM | IC50 [8]: > 30 µM
SMILES: Cc1nc2cc3nc(-c4cccs4)cnc3cc2n1C

IC50 (U-87 MG): > 50 µM
SMILES: Cc1cc2ncc(-c3ccc(O)c(O)c3)nc2cc1C
IC50 (BE): > 50 µM | IC50 (HUVEC): 24.7 µM

IC50 (U-87 MG): > 50 µM
SMILES: COc1ccc(-c2cnc3cc(C)c(C)cc3n2)cc1O
IC50 (BE): > 50 µM | IC50 (HUVEC): > 100 µM

IC50 (U-87 MG): 42.3 µM
SMILES: CC(=O)Oc1ccc(-c2cnc3cc(C)c(C)cc3n2)cc1O
IC50 (BE): > 50 µM | IC50 (HUVEC): 54.4 µM

half-life [20]: 16.7 min | half-life [21]: 4.02 min | half-life [22]: 61 min
SMILES: CC(C)OC(=O)N1CCN(c2ncc(-c3ccc4nccnc4c3)cc2C#N)CC1

IC50 (U-87 MG): 15.9 µM
SMILES: Cc1cc2ncc(-c3ccc(OCc4ccccc4)c(O)c3)nc2cc1C
IC50 (BE): 41 µM | IC50 (HUVEC): > 100 µM

IC50 [23]: 0.4 µM | IC50 [24]: 0.6 µM
SMILES: Nc1n[nH]c2nc3ccccc3nc12 [QUINOXALINE1]

IC50 [19]: 0.04 µM
SMILES: O=S(=O)(c1ccc(Br)cc1)c1nc2ccccc2nc1N1CCC(O)CC1
